Read-outs that look alike come from different tables or passages of the source.
Experiments:
[1] = tested on: MK-801 induced hyperactivity behavior; experiment: MK-801 induced hyperactivity behavior in mice; format: in vivo, ICR mice; settings: for ED50: Mus musculus, read-out: ED50 (half effective dose)
Procedure: The efficacy of the compounds of the present disclosure was evaluated by high activity model of mice induced by intraperitoneal injection of MK-801.
Experimental animals: ICR mice, male, 8 mice/group, Spelford (Beijing) Biotechnology Co., Ltd.
Preparation of drug: the test compounds were taken, and pure water was added, and ultrasonication was performed.
Administration route and method: gavage administration, 10 mL/kg (body weight).
Administration frequency and duration: single dose.
Animals were stratified by body weight and then randomly divided into blank group, model group, and administration group, and detailed information of administration is shown in the following table.
Mice were stratified according to body weight and then randomly divided into model group, blank group and each administration group. One hour after the gavage administration of solvent or drug, 0.3 mg/kg MK-801 was injected intraperitoneally (the blank group was injected with the same volume of physiological saline), and then the mice were put into an independent activity box (a black polyethylene box with the specification of 29 cm×29 cm×30 cm) for video recording for 60 minutes, and video analysis was performed at the end of the recording to evaluate the activity of the mice.
The experimental data were expressed as x±SD, and SPSS statistical software was used to test the homogeneity of variance. If the variance was homogeneous, single factor analysis of variance was performed, and Dunnett t test is used for pairwise comparison. The ED50 was calculated by nonlinear fitting with GraphPad Primis5 software.

D2S receptor = target: T1, D2S receptor (Homo sapiens, UniProt P14416); experiment: Functional activity test on D2S receptor, cAMP detection (Gi antagonist test); format: cell-based; settings: cultured HEK293/D2S cells, forskolin + dopamine EC90
T1 construct: expressed in transfected cells
Description: (§1) The antagonistic effects of the compounds of the present disclosure on D2L and D2S receptors were detected by cyclic adenosine monophosphate (cAMP) detection method at cell-level.
(§2) • (1) Test compound: compounds of the embodiment of the present disclosure, self-made. • (2) Control compound: dopamine hydrochloride (Sigma, H8502), (+)-Butaclamol hydrochloride (Sigma, D033). • (3) Stable cell line:
(§3) • (1) Preparation of test compounds: the compounds of the embodiments of the present disclosure were respectively dissolved in DMSO to prepare 10 mM mother liquor, and the mother liquor was stored in the nitrogen cabinet for later use. • (2) Preparation of control compound: the control compound was dissolved in DMSO to prepare 10 mM mother liquor, and the mother liquor was repackaged and stored in the refrigerator at −80° C. for later use. • (3) IBMX was dissolved in DMSO to prepare 0.5 M stock solution and the stock solution was cryopreserved at −80° C. • (4) Forskolin was dissolved in DMSO to prepare 1 mM stock solution and the stock solution was cryopreserved at −80° C. for later use. • (5) Experimental buffer: 5× stimulation buffer was diluted to 1× with ddH2O and IBMX with a final concentration of 0.5 mM was added thereto, and the solution was mixed well for later use.
(§4) • (1) Preparation of compounds: the test compounds and positive control compound (+)-Butaclamol hydrochloride were diluted gradient using Bravo in the compound plate (Greiner-781280), and the initial concentration of working solution was 20 μM, and the working solution was diluted at 4-fold for 10 concentrations and centrifuged at 1000 rpm for 1 minute for later use. • (2) Cryopreserved D2L cells: cells was taken out from the liquid nitrogen tank and thaw in a water bath at 37° C., and the cell suspension was transferred to a centrifuge tube containing HBSS buffer, and centrifuged at 750 rpm for 5 minutes.
(§5) Cultured D2S cells: after absorbing the culture medium, the cells were washed with 3 mL PBS, sucked out, digested with 0.05% Trypsin for 3 min, terminated with equal volume of culture medium, transferred to centrifuge tube, and centrifuged at 750 rpm for 5 minutes. After absorbing the liquid, the centrifuge tube was added with a buffer solution containing HBSS and re-suspend, and centrifuged at 750 rpm for 5 minutes. • (3) The supernatant was discarded, and the precipitate was re-suspended with proper amount of experimental buffer, and 20 μL was taken for cell counting. • (4) Appropriate amount of cell suspension was removed, and the cell suspension was diluted to 2×10^5 cells/mL with experimental buffer, and the cell plate (PerkinElmer-6008280) was added with 5 μL/well cell suspension, and centrifuged at 1000 rpm for 1 minute. • (5) 5 μL/well was transferred to the cell plate with Bravo, and the cell plate was centrifuged at 1000 rpm for 1 minute, then the cell plate was closed and incubated at room temperature for 15 minutes. • (6) Forskolin was transferred to the cell plate with Tecan-D300e, and Dopamine hydrochloride with a final concentration of EC90 was transferred to the cell plate. • (7) The cell plate was centrifuged at 1000 rpm for 1 minute, then sealed and incubated at room temperature for 45 minutes. • (8) Standard curve: cAMP with the stock solution concentration of 2848 nM was diluted 4-fold continuously at 8 points according to the initial maximum concentration of 712 nM, and 10 μL/well was taken out to add to the cell plate. • (9) 10 μL/well of detection solution containing cAMP-d2 and Anti-cAMP-Cryptate (diluted with pyrolysis buffer at 1:20) was added to the cell plate, and the cell plate was centrifuged at 1000 rpm for 1 minute, and incubated at room temperature without light for 1 hour. • (10) Detection: the cell plate was centrifuged at 1000 rpm for 1 minute, and the plate was read with Envision (excitation light 340 nm, emission light 620 nm and 665 nm). […]

D2L receptor = target: T2, D2L receptor (Homo sapiens, UniProt P14416); experiment: Functional activity test on D2L receptor, cAMP detection (Gi antagonist test); format: cell-based; settings: cryopreserved CHO-K1/D2L/Gα15 cells, forskolin + dopamine EC90
T2 construct: expressed in transfected cells
Description: as §1, §2, §3, §4, §5

[2] = male ICR mice, single gavage dose 1 h before MK-801 0.3 mg/kg i.p., activity recorded 60 min

T1 sequence (P14416 1-414 isoform P14416-2): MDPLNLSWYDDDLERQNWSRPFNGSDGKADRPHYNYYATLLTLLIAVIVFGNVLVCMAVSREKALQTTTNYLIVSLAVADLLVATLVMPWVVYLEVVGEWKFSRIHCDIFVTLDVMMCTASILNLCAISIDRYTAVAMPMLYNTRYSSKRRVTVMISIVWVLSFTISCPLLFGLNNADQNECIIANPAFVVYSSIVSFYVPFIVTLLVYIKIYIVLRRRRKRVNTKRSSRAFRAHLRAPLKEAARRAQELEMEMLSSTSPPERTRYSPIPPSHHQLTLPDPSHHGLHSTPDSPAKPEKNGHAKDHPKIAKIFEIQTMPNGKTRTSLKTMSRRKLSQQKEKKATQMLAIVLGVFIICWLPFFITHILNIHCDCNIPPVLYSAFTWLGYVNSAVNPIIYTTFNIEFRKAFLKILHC
T2 sequence (P14416 whole entry): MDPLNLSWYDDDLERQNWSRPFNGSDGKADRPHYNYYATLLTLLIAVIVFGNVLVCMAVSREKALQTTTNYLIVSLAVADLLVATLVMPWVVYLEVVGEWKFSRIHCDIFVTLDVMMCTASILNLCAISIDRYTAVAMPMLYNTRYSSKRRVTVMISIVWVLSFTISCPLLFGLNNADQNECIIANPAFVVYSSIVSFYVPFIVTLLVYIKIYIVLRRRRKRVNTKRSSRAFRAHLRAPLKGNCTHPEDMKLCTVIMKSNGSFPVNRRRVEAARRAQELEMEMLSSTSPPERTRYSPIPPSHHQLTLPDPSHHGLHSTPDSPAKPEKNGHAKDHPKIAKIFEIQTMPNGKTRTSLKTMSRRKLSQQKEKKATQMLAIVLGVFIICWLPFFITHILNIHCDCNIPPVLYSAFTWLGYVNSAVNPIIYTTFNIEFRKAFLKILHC

| SMILES | ED50 [1] | MED (lowest effective dose) [1, 2] | IC50 (D2S receptor) | IC50 (D2L receptor) | ED50 [1, 2] |
| --- | --- | --- | --- | --- | --- |
| CN1C(=O)CN2c3c1cccc3C1(C)CN(CCCC(=O)c3ccc(F)cc3)CCC21 (stereo not drawn) [Embodiment 1, 8-(4-(4-fluorophenyl)-4-oxobutyl)-3,6b-dimethyl-6b,7,8,9,10,10a-hexahydro-1H-pyrido[3′,4′:4,5]pyrrolo[1,2,3-de]quinoxalin-2(3H)-one] | 0.11 mg/kg | 0.1 mg/kg | 0.0954 µM | 0.0203 µM |  |
| CN1C(=O)CN2c3c1cccc3[C@]1(C)CN(CCCC(=O)c3ccc(F)cc3)CC[C@H]21 [Embodiment 1-A, (6bR,10aS)-8-(4-(4-fluorophenyl)-4-oxobutyl)-3,6b-dimethyl-6b,7,8,9,10,10a-hexahydro-1H-pyrido[3′,4′:4,5]pyrrolo [1,2,3-de]quinoxalin-2(3H)-one] |  | 0.03 mg/kg | 0.261 µM | 0.0309 µM | 0.08 mg/kg |
| CN1CCN2c3c(cccc31)[C@@H]1CN(CCCC(=O)c3ccc(F)cc3)CC[C@@H]12 [ITI-007, Lumateperone, reference compound] |  | 1 mg/kg | 0.344 µM | 0.131 µM | 1.03 mg/kg |
